According to patent US20240383856A1 (Zedira GmbH, priority 2021, published 2024):
Values belong to the molecule of their own block, whether it stands above or below them.

Assays:
[1] = biological target: T1, recombinant human transglutaminase 2 (Homo sapiens, UniProt P21980); assay: Transglutaminase assay (DCC-assay): incorporation of dansylcadaverine into dimethylcasein; type: biochemical; conditions: recombinant human TG2 10 nM; dansylcadaverine incorporation into dimethylcasein; read-out: IC50 TG2
T1 construct: purchased Zedira T022
T1 sequence (P21980 1-687): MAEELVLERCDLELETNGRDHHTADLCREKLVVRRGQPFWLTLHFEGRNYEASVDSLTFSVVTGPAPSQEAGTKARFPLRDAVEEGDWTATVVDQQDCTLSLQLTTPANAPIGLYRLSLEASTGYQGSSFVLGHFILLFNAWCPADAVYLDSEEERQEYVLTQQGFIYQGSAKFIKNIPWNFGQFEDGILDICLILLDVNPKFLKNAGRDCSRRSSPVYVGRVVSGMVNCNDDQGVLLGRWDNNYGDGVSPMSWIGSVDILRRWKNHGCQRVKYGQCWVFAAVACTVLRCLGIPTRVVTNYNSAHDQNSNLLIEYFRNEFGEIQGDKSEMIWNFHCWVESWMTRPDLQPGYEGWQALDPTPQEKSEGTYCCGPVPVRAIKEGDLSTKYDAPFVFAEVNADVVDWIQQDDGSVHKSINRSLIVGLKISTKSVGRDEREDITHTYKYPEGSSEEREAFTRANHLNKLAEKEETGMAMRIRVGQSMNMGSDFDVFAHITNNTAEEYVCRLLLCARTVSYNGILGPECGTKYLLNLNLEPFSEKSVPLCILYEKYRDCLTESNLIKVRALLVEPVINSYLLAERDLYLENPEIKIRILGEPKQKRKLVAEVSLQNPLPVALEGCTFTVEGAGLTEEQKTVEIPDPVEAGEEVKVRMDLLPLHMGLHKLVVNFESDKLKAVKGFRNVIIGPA
In short: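 IC50 is the inhibitor level that blocks 50% of initial activity. Activity is the fluorescence slope (λex 330, λem 500 nm) between 20 and 30 min of a 37 °C run, relative to a 2% DMSO control. The enzyme is recombinant human tissue transglutaminase, 10 nM final, tested against a 1:2 inhibitor dilution series in a pH 8.0 mix with 10 mM CaCl2, 10 mM glutathione, 16.7 µM dansylcadaverine and 4 µM N,N-dimethylcasein.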

[2] = logD by shake flask method (octanol / PBS pH 7.4, HPLC); type: physicochemical; conditions: octanol / PBS pH 7.4, shake flask
In short: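 LogD obtained by HPLC measurement of how the compound distributes between PBS (pH 7.4) and octanol in a shake-flask experiment.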

[3] = Caco-2 permeability assay (CacoReady kit); type: in vitro ADME; conditions: human, Caco-2, Caco-2 barrier, CacoReady kit; above 1×10^−6 cm/s classified as permeable
In short: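 Caco-2 monolayer barrier, commercial ready-to-use kit, manufacturer protocol. Read-out: Papp.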

SMILES: CNC(=O)C(=O)CC[C@H](NC(=O)c1cnc(C(C)C)o1)C(=O)Nc1cccn(CC(=O)NC23CCC(C2)C3)c1=O [II-170, (S)-N1-(1-(2-(bicyclo[2.1.1]hexan-1-ylamino)-2-oxoethyl)-2-oxo-1,2-dihydropyridin-3-yl)-2-(2-isopropyloxazole-5-carboxamido)-N6-methyl-5-oxohexanediamide]
IC50 [1]: 40 to 400 nM
logD [2]: < 1
Papp [3]: 1 to 10 ×10⁻⁶ cm/s

SMILES: CNC(=O)C(=O)CC[C@H](NC(=O)c1cc2ccccc2o1)C(=O)Nc1cccn(CC(=O)NC2C3CCCC2CC3)c1=O (stereo partly drawn) [II-171, (2S)-2-(benzofuran-2-carboxamido)-N1-(1-(2-(bicyclo[3.2.1]octan-8-ylamino)-2-oxoethyl)-2-oxo-1,2-dihydropyridin-3-yl)-N6-methyl-5-oxohexanediamide]
IC50 [1]: < 40 nM
logD [2]: < 1
Papp [3]: 1 to 10 ×10⁻⁶ cm/s

SMILES: CNC(=O)C(=O)CC[C@H](NC(=O)c1c(C)noc1C)C(=O)Nc1cccn(CC(=O)NC2C3CCCC2CC3)c1=O (stereo partly drawn) [II-172, (2S)-N1-(1-(2-(bicyclo[3.2.1]octan-8-ylamino)-2-oxoethyl)-2-oxo-1,2-dihydropyridin-3-yl)-2-(3,5-dimethylisoxazole-4-carboxamido)-N6-methyl-5-oxohexanediamide]
IC50 [1]: 40 to 400 nM
logD [2]: < 1
Papp [3]: 1 to 10 ×10⁻⁶ cm/s

SMILES: CNC(=O)C(=O)CC[C@H](NC(=O)c1cncnc1C)C(=O)Nc1cccn(CC(=O)NC2C3CC4CC2CC(C(=O)O)(C4)C3)c1=O (stereo partly drawn) [II-173, (S)-N1-(1-(2-(5-carboxy-2-aminoadamantane)-2-oxoethyl)-2-oxo-1,2-dihydropyridin-3-yl)-N6-methyl-2-(4-methylpyrimidine-5-carboxamido)-5-oxohexanediamide]
IC50 [1]: 40 to 400 nM
logD [2]: < 1
Papp [3]: < 1 ×10⁻⁶ cm/s

SMILES: CNC(=O)C(=O)CC[C@H](NC(=O)C1CCc2ccccc2C1)C(=O)Nc1cccn(CC(=O)NC2C3CC4CC2CC(C(=O)N(C)C)(C4)C3)c1=O (stereo partly drawn) [II-174, (2S)-N1-(1-(2-(4-aminoadamantane-N,N-dimethyl-1-carboxamide)-2-oxoethyl)-2-oxo-1,2-dihydropyridin-3-yl)-N6-methyl-5-oxo-2-(1,2,3,4-tetrahydronaphthalene-2-carboxamido)hexanediamide]
IC50 [1]: 40 to 400 nM
logD [2]: < 1
Papp [3]: < 1 ×10⁻⁶ cm/s

SMILES: CC(C)(C)NC(=O)C(=O)CC[C@H](NC(=O)[C@@H]1CN2CCN1CC2)C(=O)Nc1cccn(CC(=O)NC2C3CC4CC(C3)CC2C4)c1=O (stereo partly drawn) [II-175, (S)-2-((S)-1,4-diazabicyclo[2.2.2]octane-2-carboxamido)-N6-tert-butyl-N1-(1-(2-(2-adamantylamino)-2-oxoethyl)-2-oxo-1,2-dihydropyridin-3-yl)-5-oxohexanediamide]
IC50 [1]: 400 to 2500 nM
logD [2]: 1 to 3
Papp [3]: < 1 ×10⁻⁶ cm/s

SMILES: CC(C)(C)NC(=O)C(=O)CC[C@H](NC(=O)c1c[nH]c2ccccc12)C(=O)Nc1cccn(CC(=O)NC2C3CC4CC(C3)CC2C4)c1=O (stereo partly drawn) [II-176, (S)-N1-tert-butyl-5-(1H-indole-3-carboxamido)-N6-(1-(2-(2-adamantylamino)-2-oxoethyl)-2-oxo-1,2-dihydropyridin-3-yl)-2-oxohexanediamide]
IC50 [1]: 400 to 2500 nM
logD [2]: 3 to 5
Papp [3]: 1 to 10 ×10⁻⁶ cm/s

SMILES: Cc1cn2c(C(=O)N[C@@H](CCC(=O)C(=O)NC(C)(C)C)C(=O)Nc3cccn(CC(=O)NC4C5CC6CC(C5)CC4C6)c3=O)csc2n1 (stereo partly drawn) [II-177, (S)-N1-tert-butyl-N6-(1-(2-(2-adamantylamino)-2-oxoethyl)-2-oxo-1,2-dihydropyridin-3-yl)-5-(6-methylimidazo[2,1-b]thiazole-3-carboxamido)-2-oxohexanediamide]
IC50 [1]: 400 to 2500 nM
logD [2]: 3 to 5
Papp [3]: 1 to 10 ×10⁻⁶ cm/s

SMILES: O=C(Cn1cccc(NC(=O)[C@H](CCC(=O)C(=O)NC2CCCC2)NC(=O)c2nc3ccccc3s2)c1=O)N[C@@H]1C[C@@H]2CC[C@H]1C2 [II-178, (S)-2-(benzo[d]thiazole-2-carboxamido)-N1-(1-(2-((1S,2R,4R)-bicyclo[2.2.1]heptan-2-ylamino)-2-oxoethyl)-2-oxo-1,2-dihydropyridin-3-yl)-N6-cyclopentyl-5-oxohexanediamide]
IC50 [1]: 40 to 400 nM
logD [2]: 3 to 5
Papp [3]: 1 to 10 ×10⁻⁶ cm/s

SMILES: O=C(Cn1cccc(NC(=O)[C@H](CCC(=O)C(=O)NC2CCCC2)NC(=O)c2cn3ccsc3n2)c1=O)N[C@@H]1C[C@@H]2CC[C@H]1C2 [II-179, (S)-N1-(1-(2-((1S,2R,4R)-bicyclo[2.2.1]heptan-2-ylamino)-2-oxoethyl)-2-oxo-1,2-dihydropyridin-3-yl)-N6-cyclopentyl-2-(imidazo[2,1-b]thiazole-6-carboxamido)-5-oxohexanediamide]
IC50 [1]: 400 to 2500 nM
logD [2]: 1 to 3
Papp [3]: 1 to 10 ×10⁻⁶ cm/s

More lines, now with the values ahead:

IC50 [1]: 400 to 2500 nM
logD [2]: 3 to 5
Papp [3]: < 1 ×10⁻⁶ cm/s
SMILES: O=C(Cn1cccc(NC(=O)[C@H](CCC(=O)C(=O)NC2CCCC2)NC(=O)c2cnc3ccc(OC(F)(F)F)cc3c2O)c1=O)N[C@@H]1C[C@@H]2CC[C@H]1C2 [II-180, (S)-N1-(1-(2-((1S,2R,4R)-bicyclo[2.2.1]heptan-2-ylamino)-2-oxoethyl)-2-oxo-1,2-dihydropyridin-3-yl)-N6-cyclopentyl-2-(4-hydroxy-6-(trifluoromethoxy)quinoline-3-carboxamido)-5-oxohexanediamide]

IC50 [1]: 400 to 2500 nM
logD [2]: 1 to 3
Papp [3]: < 1 ×10⁻⁶ cm/s
SMILES: O=C(Cn1cccc(NC(=O)[C@H](CCC(=O)C(=O)NC2CCCCC2)NC(=O)c2cc3ccccc3nn2)c1=O)NC12CC(C1)C2 [II-181, (S)-N1-(1-(2-(bicyclo[1.1.1]pentan-1-ylamino)-2-oxoethyl)-2-oxo-1,2-dihydropyridin-3-yl)-2-(cinnoline-3-carboxamido)-N6-cyclohexyl-5-oxohexanediamide]

IC50 [1]: 40 to 400 nM
logD [2]: 1 to 3
Papp [3]: 1 to 10 ×10⁻⁶ cm/s
SMILES: CCc1c(C(=O)N[C@@H](CCC(=O)C(=O)NC2CCCCC2)C(=O)Nc2cccn(CC(=O)NC34CC(C3)C4)c2=O)oc2ccccc12 [II-182, (S)-N1-(1-(2-(bicyclo[1.1.1]pentan-1-ylamino)-2-oxoethyl)-2-oxo-1,2-dihydropyridin-3-yl)-N6-cyclohexyl-2-(3-ethylbenzofuran-2-carboxamido)-5-oxohexanediamide]

IC50 [1]: 40 to 400 nM
logD [2]: 1 to 3
Papp [3]: 1 to 10 ×10⁻⁶ cm/s
SMILES: CCn1c(C(=O)N[C@@H](CCC(=O)C(=O)NC2CCCCC2)C(=O)Nc2cccn(CC(=O)NC34CC(C3)C4)c2=O)cc2ccccc21 [II-183, (S)-N1-(1-(2-(bicyclo[1.1.1]pentan-1-ylamino)-2-oxoethyl)-2-oxo-1,2-dihydropyridin-3-yl)-N6-cyclohexyl-2-(1-ethyl-1H-indole-2-carboxamido)-5-oxohexanediamide]

IC50 [1]: 400 to 2500 nM
logD [2]: 1 to 3
Papp [3]: < 1 ×10⁻⁶ cm/s
SMILES: Cc1nc2ncccc2cc1C(=O)N[C@@H](CCC(=O)C(=O)NC1CCCCC1)C(=O)Nc1cccn(CC(=O)NC23CC(C2)C3)c1=O [II-184, (S)-N1-(1-(2-(bicyclo[1.1.1]pentan-1-ylamino)-2-oxoethyl)-2-oxo-1,2-dihydropyridin-3-yl)-N6-cyclohexyl-2-(2-methyl-1,8-naphthyridine-3-carboxamido)-5-oxohexanediamide]

IC50 [1]: 400 to 2500 nM
logD [2]: < 1
Papp [3]: < 1 ×10⁻⁶ cm/s
SMILES: CNC(=O)C(=O)CC[C@H](NC(=O)c1ccc2c(c1)CCCN2)C(=O)Nc1cccn(CC(=O)NC23CCC(C2)C3)c1=O [II-185, (S)-N1-(1-(2-(bicyclo[2.1.1]hexan-1-ylamino)-2-oxoethyl)-2-oxo-1,2-dihydropyridin-3-yl)-N6-methyl-5-oxo-2-(1,2,3,4-tetrahydroquinoline-6-carboxamido)hexanediamide]
